{
  "source": "patent US20090105632A1",
  "about": "(priority 2007, published 2009)",
  "origin": "cited, not measured here",
  "key": {"[1]": {"conditions": "10 mM citrate buffer at pH 5"}, "Parkinson's disease": {"tested_on": "Parkinson's disease", "conditions": "lisuride administration at about 1.1 mg/day"}, "[2]": {"conditions": "oral route, metabolized by the liver"}},
  "data": [
    {"smiles": "CCN(CC)C(=O)N[C@H]1C=C2c3cccc4[nH]cc(c34)C[C@H]2N(C)C1", "note": "[lisuride, N′-[(8α)-9,10-didehydro-6-methylergolin-8-yl]-N,N-diethylurea]", "values": [
      {"measurement": "solubility", "setting": "[1]", "result": "about 1.8 mg/ml"},
      {"measurement": "antiparkinsonian response", "setting": "Parkinson's disease", "result": "equal to that achieved with doses of levopoda monotherapy of 668 mg/day"},
      {"measurement": "pKa", "result": "about 8"},
      {"measurement": "bioavailability", "setting": "[2]", "result": "about 25%"}
    ]}
  ]
}
